The record followed here is patent US11040035B2, “3-oxo-2,6-diphenyl-2,3-dihydropyridazine-4-carboxamides” (BAYER PHARMA AKTIENGESELLSCHAFT, priority 2016, dated 2021).

The IC50 is the concentration needed to halve the response being measured.

Molecules are shown by their SMILES.

Experiment [1] deals with T1, AHR (Homo sapiens, UniProt P35869).
T1 sequence (P35869 11-848): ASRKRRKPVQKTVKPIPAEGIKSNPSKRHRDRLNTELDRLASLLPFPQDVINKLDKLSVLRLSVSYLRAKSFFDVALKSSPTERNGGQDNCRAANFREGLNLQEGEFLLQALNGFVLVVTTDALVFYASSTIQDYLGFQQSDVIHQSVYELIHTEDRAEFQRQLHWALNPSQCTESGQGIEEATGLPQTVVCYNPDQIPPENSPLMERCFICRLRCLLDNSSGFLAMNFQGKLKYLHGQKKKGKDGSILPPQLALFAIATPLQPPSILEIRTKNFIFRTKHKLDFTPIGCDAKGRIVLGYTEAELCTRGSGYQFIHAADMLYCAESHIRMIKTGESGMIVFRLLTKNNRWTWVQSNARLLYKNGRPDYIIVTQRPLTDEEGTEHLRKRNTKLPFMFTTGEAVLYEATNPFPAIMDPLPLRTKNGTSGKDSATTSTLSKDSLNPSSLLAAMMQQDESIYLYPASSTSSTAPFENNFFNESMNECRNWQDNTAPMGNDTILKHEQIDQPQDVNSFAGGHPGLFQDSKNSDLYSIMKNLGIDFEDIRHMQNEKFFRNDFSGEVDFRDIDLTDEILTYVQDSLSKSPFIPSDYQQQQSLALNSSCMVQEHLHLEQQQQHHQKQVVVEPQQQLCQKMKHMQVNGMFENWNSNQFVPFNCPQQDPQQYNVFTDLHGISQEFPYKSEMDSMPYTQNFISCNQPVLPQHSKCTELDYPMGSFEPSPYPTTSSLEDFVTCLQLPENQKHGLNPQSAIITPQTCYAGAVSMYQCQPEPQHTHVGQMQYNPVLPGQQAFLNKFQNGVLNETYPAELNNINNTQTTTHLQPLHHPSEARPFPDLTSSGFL
Put plainly: In vitro assay 2: agonism in human cell line (transactivation assay).

In experiment [2] the target is T1, AHR. Put plainly: In vitro assay 1: antagonism in human cell line (transactivation assay, kynurenic acid prestimulated). The settings on record: Assay 1: AHR-luc Hum Antagonism IC50 [M], 150 μM kynurenic acid, 20 hours, firefly luciferase.
[3] abbreviates: Assay 2: AHR-luc Hum Agonism IC50 [M], no kynurenic acid, 20 hours, firefly luciferase.
Setting [4] is: read-out: Assay 2: AHR-luc Hum Agonism IC50, no kynurenic acid, 20 hours, firefly luciferase.

Regarding `CC(O)C(C)NC(=O)c1cc(-c2ccc(OC(F)F)cc2)nn(-c2cccc(F)c2)c1=O` (centres unmarked) [Example 140, 6-[4-(Difluoromethoxy)phenyl]-2-(3-fluorophenyl)-N-(3-hydroxybutan-2-yl)-3-oxo-2,3-dihydropyridazine-4-carboxamide], the IC50 against AHR [1] (setting [3]) was above 2e-05 M; against AHR [2], 2.05e-07 M.
Regarding `CC(O)C(NC(=O)c1cc(-c2ccc(Cl)cc2)nn(-c2cccc(F)c2)c1=O)C(F)(F)F` (single isomer, unassigned) [Example 199, Isomer no. 2 of 6-(4-chlorophenyl)-2-(3-fluorophenyl)-3-oxo-N-(1,1,1-trifluoro-3-hydroxybutan-2-yl)-2,3-dihydropyridazine-4-carboxamide], the IC50 at AHR [1] (setting [4]) was above 2e-05 M; against AHR [2] it was 5.84e-07 M.
Regarding `O=C(N[C@H]1C[C@H](CO)C1)c1cc(-c2ccc(Cl)cc2)nn(-c2cccc(F)c2)c1=O` [Example 396, 6-(4-chlorophenyl)-2-(3-fluorophenyl)-N-[trans-3-(hydroxymethyl)cyclobutyl]-3-oxo-2,3-dihydropyridazine-4-carboxamide], the IC50 was above 2e-05 M on AHR [1] (setting [3]) and 1.3e-07 M against AHR [2].
For `COCCC(CO)NC(=O)c1cc(-c2ccc(C(F)(F)F)cc2)nn(-c2cccc(F)c2)c1=O` (racemic) [Example 259, 2-(3-Fluorophenyl)-N-[(2RS)-1-hydroxy-4-methoxybutan-2-yl]-3-oxo-6-[4-(trifluoromethyl)phenyl]-2,3-dihydropyridazine-4-carboxamide], the IC50 against AHR [1] (setting [3]) is above 2e-05 M; at AHR [2], 3.82e-08 M.
On the same counts, the results for `O=C(NC(CO)Cc1ccccn1)c1cc(-c2ccc(Cl)cc2)nn(-c2cccc(F)c2)c1=O` (racemic) [Example 333, 6-(4-chlorophenyl)-2-(3-fluorophenyl)-N-[(2RS)-1-hydroxy-3-(pyridin-2-yl)propan-2-yl]-3-oxo-2,3-dihydropyridazine-4-carboxamide] are above 2e-05 M and 1.34e-07 M.
Consider `CC(CCO)NC(=O)c1cc(-c2ccc(Cl)cc2)nn(-c2cccc(F)c2)c1=O` (single isomer, unassigned; (+)) [Example 207, (+)-6-(4-Chlorophenyl)-2-(3-fluorophenyl)-N-(4-hydroxybutan-2-yl)-3-oxo-2,3-dihydropyridazine-4-carboxamide], for which the IC50 is above 2e-05 M against AHR [1] (setting [3]) and 6.29e-08 M at AHR [2].
`O=C(NC(CO)Cc1ccncc1)c1cc(-c2ccc(Cl)cc2)nn(-c2cccc(F)c2)c1=O` (racemic) [Example 334, 6-(4-chlorophenyl)-2-(3-fluorophenyl)-N-[(2RS)-1-hydroxy-3-(pyridin-4-yl)propan-2-yl]-3-oxo-2,3-dihydropyridazine-4-carboxamide]: the IC50 was above 2e-05 M against AHR [1] (setting [3]) and 1.09e-07 M against AHR [2].
With `COCC(O)CNC(=O)c1cc(-c2ccc(OC(F)F)cc2)nn(-c2cccc(F)c2)c1=O` (centres unmarked) [Example 160, 6-[4-(Difluoromethoxy)phenyl]-2-(3-fluorophenyl)-N-(2-hydroxy-3-methoxypropyl)-3-oxo-2,3-dihydropyridazine-4-carboxamide], the concentration for half-maximal inhibition (IC50) at AHR [1] (setting [3]) was above 2e-05 M; against AHR [2], 3.11e-07 M.
With `NC(=O)CC(CO)NC(=O)c1cc(-c2ccc(Cl)cc2)nn(-c2cccc(F)c2)c1=O` (centres unmarked) [Example 163, N-(4-Amino-1-hydroxy-4-oxobutan-2-yl)-6-(4-chlorophenyl)-2-(3-fluorophenyl)-3-oxo-2,3-dihydropyridazine-4-carboxamide], the IC50 at AHR [1] (setting [3]) was above 2e-05 M; against AHR [2] it was 4.98e-07 M.
On the same counts, the results for `O=C(N[C@H]1CCCC[C@@H]1O)c1cc(-c2ccc(Cl)cc2)nn(-c2cccc(F)c2)c1=O` (relative stereo) [Example 117, 6-(4-chlorophenyl)-2-(3-fluorophenyl)-N-(trans-2-hydroxycyclohexyl)-3-oxo-2,3-dihydropyridazine-4-carboxamide] are above 2e-05 M and 3.67e-08 M.
Consider `O=C(N[C@H](CO)C1CCCC1)c1cc(-c2ccc(Cl)cc2)nn(-c2cccc(F)c2)c1=O` [Example 157, 6-(4-Chlorophenyl)-N-[(1S)-1-cyclopentyl-2-hydroxyethyl]-2-(3-fluorophenyl)-3-oxo-2,3-dihydropyridazine-4-carboxamide], for which the values for the 50% inhibitory concentration (IC50) against AHR [1] (setting [3]) and against AHR [2] were above 2e-05 M and 2.22e-07 M, respectively.
Regarding `O=C(NCC(O)C(F)(F)F)c1cc(-c2ccc(Cl)c(F)c2)nn(-c2cc(F)cc(F)c2)c1=O` (single isomer, unassigned) [Example 404, 6-(4-chloro-3-fluorophenyl)-2-(3,5-difluorophenyl)-3-oxo-N-(3,3,3-trifluoro-2-hydroxypropyl)-2,3-dihydropyridazine-4-carboxamide], the figures for the IC50 against AHR [1] (setting [3]) and against AHR [2] were above 2e-05 M and 2.7e-07 M, respectively.
Turning to `CC(C)C(O)CNC(=O)c1cc(-c2ccc(Cl)cc2)nn(-c2cccc(Cl)c2)c1=O` (single isomer, unassigned) [Example 69, 2-(3-Chlorophenyl)-6-(4-chlorophenyl)-N-(2-hydroxy-3-methylbutyl)-3-oxo-2,3-dihydropyridazine-4-carboxamide], the IC50 on AHR [1] (setting [4]) is above 2e-05 M; at AHR [2], 4.41e-07 M.
In the case of `C[C@H](O)[C@H](CO)NC(=O)c1cc(-c2ccc(Cl)cc2)nn(-c2cccc(F)c2)c1=O` [Example 132, 6-(4-Chlorophenyl)-N-[(2S,3S)-1,3-dihydroxybutan-2-yl]-2-(3-fluorophenyl)-3-oxo-2,3-dihydropyridazine-4-carboxamide], the figures for the half-inhibitory concentration (IC50) at AHR [1] (setting [3]) and on AHR [2] were above 2e-05 M and 1.36e-07 M, respectively.
Turning to `Cc1ccc(-c2cc(C(=O)NCC(O)C(F)(F)F)c(=O)n(-c3cc(F)cc(F)c3)n2)cc1` (centres unmarked) [Example 52, 2-(3,5-Difluorophenyl)-6-(4-methylphenyl)-3-oxo-N-(3,3,3-trifluoro-2-hydroxypropyl)-2,3-dihydropyridazine-4-carboxamide], the IC50 was above 2e-05 M at AHR [1] (setting [3]) and 1.17e-08 M against AHR [2].
As to `O=C(N[C@@H]1CCCC(F)(F)[C@H]1O)c1cc(-c2ccc(Cl)cc2)nn(-c2cccc(F)c2)c1=O` (single isomer, unassigned) [Example 276, 6-(4-Chlorophenyl)-N-[(trans)-3,3-difluoro-2-hydroxycyclohexyl]-2-(3-fluorophenyl)-3-oxo-2,3-dihydropyridazine-4-carboxamide], the IC50 on AHR [1] (setting [4]) was above 2e-05 M; against AHR [2], 1.45e-07 M.
Turning to `C[C@H](NC(=O)c1cc(-c2ccc(C(F)(F)F)cc2)nn(-c2cccc(F)c2)c1=O)C(C)(C)O` [Example 391, 2-(3-fluorophenyl)-N-[(2S)-3-hydroxy-3-methylbutan-2-yl]-3-oxo-6-[4-(trifluoromethyl)phenyl]-2,3-dihydropyridazine-4-carboxamide], the IC50 on AHR [1] (setting [3]) is above 2e-05 M; against AHR [2], 1e-08 M.
Turning to `O=C(NC(CO)C1CCOCC1)c1cc(-c2ccc(Cl)cc2)nn(-c2cccc(F)c2)c1=O` (single isomer, unassigned) [Example 150, 6-(4-Chlorophenyl)-2-(3-fluorophenyl)-N-[2-hydroxy-1-(tetrahydro-2H-pyran-4-yl)ethyl]-3-oxo-2,3-dihydropyridazine-4-carboxamide], the IC50 on AHR [1] (setting [3]) is above 2e-05 M; on AHR [2] it was 2.35e-07 M.
On the same counts, the results for `CC(C)(C)OC(=O)N1C[C@H](O)[C@H](NC(=O)c2cc(-c3ccc(Cl)cc3)nn(-c3cccc(F)c3)c2=O)C1` [Example 387, tert-butyl (3R,4S)-3-({[6-(4-chlorophenyl)-2-(3-fluorophenyl)-3-oxo-2,3-dihydropyridazin-4-yl]carbonyl}amino)-4-hydroxypyrrolidine-1-carboxylate] are above 2e-05 M and 3.5e-07 M.
On the same counts, the results for `O=C(NC1(CO)CCCCC1)c1cc(-c2ccc(Cl)cc2)nn(-c2cccc(F)c2)c1=O` [Example 215, 6-(4-Chlorophenyl)-2-(3-fluorophenyl)-N-[1-(hydroxymethyl)cyclohexyl]-3-oxo-2,3-dihydropyridazine-4-carboxamide] are above 2e-05 M and 1.66e-07 M.
For `O=C(NCC(O)C(F)(F)F)c1cc(-c2ccc(Cl)cc2)nn(-c2ccccc2)c1=O` (single isomer, unassigned) [Example 77, 6-(4-chlorophenyl)-3-oxo-2-phenyl-N-(3,3,3-trifluoro-2-hydroxypropyl)-2,3-dihydropyridazine-4-carboxamide], the IC50 at AHR [1] (setting [3]) is above 2e-05 M; at AHR [2], 7.28e-08 M.
For `COCC(O)CNC(=O)c1cc(-c2ccc(C)cc2)nn(-c2cccc(F)c2)c1=O` (single isomer, unassigned; enantiomer 1) [Example 17, 2-(3-Fluorophenyl)-N-(2-hydroxy-3-methoxypropyl)-6-(4-methylphenyl)-3-oxo-2,3-dihydropyridazine-4-carboxamide, Enantiomer 1] the same measures were above 2e-05 M and 2.11e-07 M.
